Results taken from US4746675A, “External pharmaceutical composition” (Teijin Limited, priority 1983, dated 1988).
Read-outs that look alike come from different tables or passages of the source.

Tests used:
[1] = concentration of indomethacin in rat blood after application of ointment to the back; conditions: for Concentration of indomethacin in the blood: rat, in vivo
Protocol: An ointment was prepared from 1 part by weight of indomethacin, 10 parts by weight of compound (168) and 89 parts by weight of a hydrophilic ointment (composed of 250 parts of white Vaseline, 220 parts by weight of stearyl alcohol, 120 parts by weight of propylene glycol, 15 parts by weight of sodium laurylsulfate, 0.25 part by weight of ethyl p-hydroxybenzoate, 0.15 part by weight of propyl p-hydroxybenzoate and a small amount of purified water). The back of a rat (body weight about 250 g) was cut by an electric hair-clipper, and 100 mg of the resulting ointment was applied by a finger to a circular unhaired portion, 4 cm in diameter. The blood was drawn from the tail of the rat periodically, and the concentration of indomethacin in the blood was determined periodically by high-performance liquid chromatography.
Various ointments were prepared from 1 part by weight of indomethacin, 10 parts of each of various penetration enhancers shown in Table 2 and the hydrophilic ointment, and tested as in Example 1.

[2] = test system: eye (cornea, iris, conjunctiva); experiment: primary eye irritation (Draize) in rabbits; assay type: in vivo, white native male rabbits; conditions: 2.4% soln, average of three rabbits
Protocol: enhancers of this invention shown in Table 17 was applied dropwise to one eye of white native male rabbits (body weight 2.0 to 3.0 kg; 3 per group) which, it had been ascertained, were free from any trouble at the cornea, iris and conjunctiva. Nothing was applied to the other eye. Thus, irritation of the absorption aid to the mucous membrane of the eyes were examined, and scores were calculated in accordance with the Draize's eye irritation evaluating method [Association of Foods, "Drugs and Cosmetics" (1957)].
As a control, sodium laurylsulfate, a kind of surface-active agent, was evaluated in the same way, and the results are also shown in Table 17.

carrageenan edema = carrageenan edema inhibiting effect of betamethasone valerate ointments; assay type: in vivo, rat; conditions: for Percentage inhibition based on the control: 0.15% betamethasone valerate, 9.85% Compound (168) or none; for Percentage inhibition vs. control: Table 5, betamethasone valerate ointment with penetration enhancer
Protocol: An ointment was prepared from 0.15 part by weight of betamethasone valerate, 9.85 parts by weight of compound (168) and 90 parts by weight of the hydrophilic ointment.
In accordance with the method of R. Passarella et al. [Argneim. Forsch 30, (I), Nr. 4, 647-651 (1980)], the carrageenan edema inhibiting effect of the above ointment was examined. Specifically, 0.1 ml of a 1% carrageenan suspension in 0.9% NaCl solution was injected into the tip of the right leg of a rat (body weight 150-175 g). The foot volume was measured immediately after administration of carrageenan and 3, 5, and 6 hours after the administration by means of a mercury displacement device. 0.5, 1 and 2 hours after the administration of carrageenan, 100 mg of the ointment was well […] into each of the sites which underwent inflammation.
Various ointments were prepared from 0.15 part by weight of betamethasone valerate, […] of the various penetration enhancers shown in Table 5, and 85 parts by weight of the hydrophilic ointment, and tested in the same way as in Example 23.

serum calcium level [3] = experiment: serum calcium after intrarectal administration of calcitonin composition to rats; assay type: in vivo, rat; conditions: versus the comparative suppository
Description: Cacao butter (93 parts by weight) and 7 parts by weight of compound (168) or compound (173) were uniformly mixed, and (Asu^1.7)-eel calcitonin was gradually added and mixed to form a uniform composition. The composition was slightly warmed, and placed into a suppository container to form a suppository for rats having a diameter of about 3 mm and a length of about 6 mm. This suppository contained 0.7 MRC unit of calcitonin. The suppository was intrarectally administered to a rat, and the concentration of calcium in the blood serum after administration was measured by using a calcium measuring kit (made by Iatoron Co.).
Various […] were prepared from cacao butter, the various penetration enhancers shown in Table 12 and [Asu^1.7 ]-eel calcitonin, and tested in the same way as in Example 85.

[4] = concentration of cephalothin sodium in blood after intrarectal administration of suppository; assay type: in vivo, Beagle dog; conditions: versus the comparative suppository
Protocol: Eighty parts by weight of cacoa butter, 10 parts by weight of compound (168) and 10 parts by weight of cephalothin sodium were uniformly mixed and then slightly warmed. The mixture was filled in a suppository container to form a suppository containing 1 g of the mixture. The suppository was administered intrarectally to a Beagle dog, and the concentration of cephalothin sodium in the blood after administration was measured by the cup method.

serum calcium level [5] = experiment: serum calcium after nasal administration of calcitonin nasal drop to rabbits; assay type: in vivo, New Zealand white male rabbit; conditions: for Percent decrease of the serum calcium level from before administration: [Asu^1.7]-eel calcitonin nasal drop, 15 units/50 μl, rabbit
Protocol: This nasal drop contained 15 units/50 μl of calcitonin. Fifty microliters of the nasal drop was administered to the nasal cavity of a New Zealand white male rabbit, and the concentration of calcium in the serum after administration was measured by using a calcium measuring kit (made by Iatron Co.).

blood glucose level = experiment: blood glucose after intrarectal administration of hog insulin suppository to rabbits; assay type: in vivo, rabbit; conditions: for Percent decrease of the blood glucose level from that before the administration: hog insulin 9.6 units, intrarectal, rabbit; for absorption of insulin from the suppository: versus the comparative suppository
Protocol: Sixty parts by weight of fractionated coconut oil and 10 parts by weight of compound (168) or compound (173) were uniformly mixed, and then hog insulin was gradually added to form a uniform dispersion. The dispersion was filled in a gelatin capsule for suppositories to form a gelatin capsular suppository. These suppository contained 9.6 units of insulin. The suppository was intrarectally administered to a rabbit, and the blood glucose level after administration was measured by the glucose oxidase method.

[6] = diffusion of drug through egg shell membrane in diffusion cell; assay type: in vitro ADME
Protocol: A diffusion cell was partitioned by an egg shell membrane. […] While maintaining a temperature of 37° C., the two liquid phases were stirred, and after a lapse of a predetermined period of time, the amount of the drug which diffused into the acceptor side from the donor side was measured.
The diffusion cell used was a glass cell for use in an ordinary diffusion experiment. The egg shell was obtained by removing the contents of an egg from the shell, immersing the shell in 0.7% acetic acid for 30 minutes, subjecting it to ultrasonication for 15 minutes, and carefully peeling the membrane from the shell.
A control test was carried out in the same way as above except that only the drug was added to the donor side.
The amount of the drug which diffused to the acceptor side was measured 30 minutes later, and compared with the control.
The relative amount of the drug diffused from the drug-penetration enhancer system was calculated by taking the amount of the drug diffused from the control donor side as 100. […] Bull., Vol. 20, p.

[7] = 30 minutes, drug 0.05% with compound (168) 1.0% on donor side, drug alone = 100, 37° C.

Compound: O=C1CC[C@@H](C(=O)O)N1 [Pyroglutamic acid, pyroglutamic acid]
- Concentration of indomethacin in the blood ([1]; 60 min): 1400 ng/mL
- Concentration of indomethacin in the blood ([1]; 180 min): 2200 ng/mL
- Concentration of indomethacin in the blood ([1]; 300 min): 2000 ng/mL
- Concentration of indomethacin in the blood ([1]; 420 min): 1800 ng/mL
- Concentration of indomethacin in the blood ([1]; 1440 min): 700 ng/mL

Compound: CCCCCCCC/C=C\CCCCCCCC(=O)OCC(O)COC(=O)[C@@H]1CCC(=O)N1 (stereo partly shown) [Compound (168), 2-hydroxy-3-oleoyloxy-1-pyroglutamyloxypropane]
- Primary irritation score, Conjunctiva ([2]; 1 hour): 2.0
- Primary irritation score, Cornea ([2]; 1 hour): 0
- Primary irritation score, Iris ([2]; 1 hour): 0
- Primary irritation score, Total ([2]; 1 hour): 2.0
- Primary irritation score, Conjunctiva ([2]; 3 hours): 2.0
- Primary irritation score, Cornea ([2]; 3 hours): 0
- Primary irritation score, Iris ([2]; 3 hours): 0
- Primary irritation score, Total ([2]; 3 hours): 2.0
- Primary irritation score, Conjunctiva ([2]; 6 hours): 1.3
- Primary irritation score, Cornea ([2]; 6 hours): 0
- Primary irritation score, Iris ([2]; 6 hours): 0
- Primary irritation score, Total ([2]; 6 hours): 1.3
- Primary irritation score, Conjunctiva ([2]; 24 hours): 0
- Primary irritation score, Cornea ([2]; 24 hours): 0
- Primary irritation score, Iris ([2]; 24 hours): 0
- Primary irritation score, Total ([2]; 24 hours): 0
- Primary irritation score, Conjunctiva ([2]; 48 hours): 0
- Primary irritation score, Cornea ([2]; 48 hours): 0
- Primary irritation score, Iris ([2]; 48 hours): 0
- Primary irritation score, Total ([2]; 48 hours): 0
- Primary irritation score, Conjunctiva ([2]; 72 hours): 0
- Primary irritation score, Cornea ([2]; 72 hours): 0
- Primary irritation score, Iris ([2]; 72 hours): 0
- Primary irritation score, Total ([2]; 72 hours): 0
- Primary irritation score, Conjunctiva ([2]; 96 hours): 0
- Primary irritation score, Cornea ([2]; 96 hours): 0
- Primary irritation score, Iris ([2]; 96 hours): 0
- Primary irritation score, Total ([2]; 96 hours): 0
- Primary irritation score, Conjunctiva ([2]; 168 hours): 0
- Primary irritation score, Cornea ([2]; 168 hours): 0
- Primary irritation score, Iris ([2]; 168 hours): 0
- Primary irritation score, Total ([2]; 168 hours): 0
- Percentage inhibition based on the control (carrageenan edema; 3 hrs): 19.7%
- Percentage inhibition based on the control (carrageenan edema; 5 hrs): 36.8%
- Percentage inhibition based on the control (carrageenan edema; 6 hrs): 39.2%
- absorption of calcitonin from the suppository (serum calcium level [3]): better
- absorption of cephalothin sodium from the suppository [4]: better
- Percent decrease of the serum calcium level from before administration (serum calcium level [5]; 1 hr): 6.1%
- Percent decrease of the serum calcium level from before administration (serum calcium level [5]; 2 hrs): 4.0%
- Percent decrease of the serum calcium level from before administration (serum calcium level [5]; 3 hrs): 1.8%
- Percent decrease of the serum calcium level from before administration (serum calcium level [5]; 5 hrs): 0.9%
- absorption of calcitonin from the nasal composition (serum calcium level [5]; versus the comparative composition): better
- absorption of indomethacin from the ointment ([1]; versus the comparative ointments): better
- Percent decrease of the blood glucose level from that before the administration (blood glucose level; 30 min): 32.8%
- Percent decrease of the blood glucose level from that before the administration (blood glucose level; 1 hr): 36.3%
- Percent decrease of the blood glucose level from that before the administration (blood glucose level; 2 hrs): 19.1%
- Percent decrease of the blood glucose level from that before the administration (blood glucose level; 3 hrs): 5.2%
- absorption of insulin from the suppository (blood glucose level): better

Compound: CCCCCCCCCCCCCCCCCC(=O)OCC(O)COC(=O)[C@@H]1CCC(=O)N1 (stereo partly shown) [Compound (173), 2-hydroxy-3-octadecanoyloxy-1-pyroglutamyloxypropane]
- Percentage inhibition vs. control (carrageenan edema; 3 hrs): 15.3%
- Percentage inhibition vs. control (carrageenan edema; 5 hrs): 32.3%
- Percentage inhibition vs. control (carrageenan edema; 6 hrs): 33.4%
- absorption of calcitonin from the suppository (serum calcium level [3]): better
- Percent decrease of the blood glucose level from that before the administration (blood glucose level; 30 min): 29.4%
- Percent decrease of the blood glucose level from that before the administration (blood glucose level; 1 hr): 33.3%
- Percent decrease of the blood glucose level from that before the administration (blood glucose level; 2 hrs): 18.6%
- Percent decrease of the blood glucose level from that before the administration (blood glucose level; 3 hrs): 3.7%
- absorption of insulin from the suppository (blood glucose level): better

Compound: C[C@]12CC[C@@H]3c4ccc(O)cc4CC[C@H]3[C@@H]1CC[C@@H]2O [Estradiol]
- Relative amount of the drug diffused [6]: 181

Compound: C=C1/C(=C\C=C2/CCC[C@]3(C)[C@@H]([C@H](C)CCCC(C)(C)O)CC[C@@H]23)C[C@@H](O)C[C@@H]1O [1,25-Dihydroxyvitamin D3]
- Relative amount of the drug diffused [6]: 123

Compound: COc1ccc2c(c1)c(CC(=O)O)c(C)n2C(=O)c1ccc(Cl)cc1 [Indomethacin]
- Relative amount of the drug diffused [6, 7]: 217

Compound: Urokinase
- Relative amount of the drug diffused [6, 7]: 115

Compound: CN1C(=O)CN=C(c2ccccc2)c2cc(Cl)ccc21 [Diazepam]
- Relative amount of the drug diffused [6, 7]: 144

Compound: CN(C)CCCN1c2ccccc2Sc2ccc(Cl)cc21 [Chlorpromazine]
- Relative amount of the drug diffused [6, 7]: 133

Compound: CC(=O)OCC1=C(C(=O)O)N2C(=O)[C@@H](NC(=O)Cc3cccs3)[C@H]2SC1 [Cephalothin]
- Relative amount of the drug diffused [6, 7]: 139

Compound: C[C@](N)(Cc1ccc(O)c(O)c1)C(=O)O [Methyldopa]
- Relative amount of the drug diffused [6, 7]: 137
